The target of series [1] is T1, CYP2E1 (Homo sapiens, UniProt P05181). Put plainly: in vitro. The note with it: recombinant enzyme, pH 7.4.
The target of series [2] is T2, CYP2C19 (Homo sapiens, UniProt P33261). Put plainly: biochemical. Here is the method:
(§1) The mixed probe substrate consisted of testosterone 0.01 mM for CYP3A4, phenacetin 0.02 mM for CYP1A2, chlorzoxazone 0.02 mM for CYP2E1, and omeprazole 0.01 mM for CYP2C19, respectively. […] Other procedure was accorded to above step of 2.6 “Microsomal incubation conditions”.

For series [3], the target named is T1, CYP2E1. Put plainly: biochemical. The procedure: as §1
The target of series [4] is T3, CYP1A2 (Homo sapiens, UniProt P05177).
T3 construct: purchased RILD (Research Institute for Liver Diseases Co., Ltd., Shanghai, China)
Put plainly: Degradation in single recombinant CYP1A2. The format is in vitro ADME. Particulars: 5 μM compound, single enzyme CYP1A2; for speed constant k in CYP1A2: t in min; for half-life at 5 μM: human, recombinant CYP1A2, pH 7.4, read-out: t1/2 in CYP1A2.
T3 sequence (P05177 whole entry): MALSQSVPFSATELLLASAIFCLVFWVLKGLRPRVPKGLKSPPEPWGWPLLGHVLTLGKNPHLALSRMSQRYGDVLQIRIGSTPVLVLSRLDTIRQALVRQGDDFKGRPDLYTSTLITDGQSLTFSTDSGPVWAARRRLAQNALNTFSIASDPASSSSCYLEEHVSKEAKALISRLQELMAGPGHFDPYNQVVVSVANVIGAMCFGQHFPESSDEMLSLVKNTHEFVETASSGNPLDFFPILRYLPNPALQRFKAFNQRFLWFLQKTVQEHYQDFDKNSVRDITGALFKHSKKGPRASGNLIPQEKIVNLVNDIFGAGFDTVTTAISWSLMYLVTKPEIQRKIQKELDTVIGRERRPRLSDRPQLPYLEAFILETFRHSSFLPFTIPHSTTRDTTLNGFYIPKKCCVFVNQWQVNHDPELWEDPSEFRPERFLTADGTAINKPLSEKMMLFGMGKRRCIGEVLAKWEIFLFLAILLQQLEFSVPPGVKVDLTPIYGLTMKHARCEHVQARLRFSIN

The target in series [5] is T4, CYP3A4 (Homo sapiens, UniProt P08684). Put plainly: in vitro. Particulars: pH 7.4, probe testosterone 0.01 mM.
Target sequence in this assay (P08684 2-503): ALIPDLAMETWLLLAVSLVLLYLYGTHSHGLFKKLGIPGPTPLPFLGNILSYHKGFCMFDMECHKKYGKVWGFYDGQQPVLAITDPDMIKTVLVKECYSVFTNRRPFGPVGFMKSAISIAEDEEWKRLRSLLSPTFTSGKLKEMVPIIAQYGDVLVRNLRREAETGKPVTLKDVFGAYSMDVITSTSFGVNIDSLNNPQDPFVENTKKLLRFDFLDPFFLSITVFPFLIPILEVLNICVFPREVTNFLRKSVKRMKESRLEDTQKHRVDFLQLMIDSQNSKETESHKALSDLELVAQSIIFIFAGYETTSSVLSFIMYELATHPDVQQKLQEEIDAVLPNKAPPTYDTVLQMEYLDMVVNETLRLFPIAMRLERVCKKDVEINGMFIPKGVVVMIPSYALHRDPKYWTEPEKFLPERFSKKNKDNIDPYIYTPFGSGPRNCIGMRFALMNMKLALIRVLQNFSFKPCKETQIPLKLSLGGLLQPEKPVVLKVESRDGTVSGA
Series [6] relates to CYP2C19. The note with it: rat liver after 7-days i.g. treatment, low-, medium- and high-dose groups. The procedure: To investigate the molecular mechanisms in the activity of the CYP enzymes, the level of CYP protein in the liver of rats was examined.
In this study, the grouping and administration methods were as described in the step of “Pharmacokinetic study of the probe substrate in vivo”. On the 8th day, the blood was allowed to drain through the aorta and the liver was excised quickly, […]. The liver tissue was stored at −80 °C until analysis.
Then, a piece of the liver tissue was separately homogenized and lysed in RIPA buffer with 1% proteinase inhibitor phenylmethylsulfonyl fluoride (PMSF). […] The protein levels were quantified by a BCA Assay Kit. The samples were boiled at 100 °C for 10 min. Equal amounts of protein lysates were separated on 10% SDS-polyacrylamide gels by electrophoresis and then transferred onto nitrocellulose membranes. The membranes were blocked in 5% non-fat milk. […] In addition, images were captured using an Odyssey Infra-red Imaging System v3.0.16 (LI-COR Biosciences, Lincoln, NE, USA), and quantified by densitometry scanning using ImageJ Analysis software (National Institutes of Health, Bethesda, MD, USA).

The target in series [7] is T2, CYP2C19. Particulars: recombinant enzyme, 5 μM, pH 7.4.
Series [8] has as its target T5, CYP1A2 (Rattus norvegicus, UniProt P04799).
T5 sequence (P04799 1-513): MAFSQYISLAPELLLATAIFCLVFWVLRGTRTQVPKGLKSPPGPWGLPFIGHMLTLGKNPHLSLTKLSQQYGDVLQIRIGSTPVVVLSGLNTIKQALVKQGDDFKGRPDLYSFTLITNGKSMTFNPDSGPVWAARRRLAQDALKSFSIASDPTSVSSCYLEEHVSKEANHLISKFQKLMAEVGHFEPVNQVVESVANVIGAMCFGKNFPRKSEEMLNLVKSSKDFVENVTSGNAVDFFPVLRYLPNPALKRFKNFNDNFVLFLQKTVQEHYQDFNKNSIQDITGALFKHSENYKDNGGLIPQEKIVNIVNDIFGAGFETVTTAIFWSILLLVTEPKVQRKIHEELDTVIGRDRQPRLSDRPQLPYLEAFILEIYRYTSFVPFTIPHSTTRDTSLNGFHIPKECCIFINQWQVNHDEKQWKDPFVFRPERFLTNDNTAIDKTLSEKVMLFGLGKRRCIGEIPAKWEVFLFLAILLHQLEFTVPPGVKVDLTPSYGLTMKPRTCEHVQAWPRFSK
Particulars: in vivo.

The target of series [9] is T2, CYP2C19. Put plainly: in vitro. Particulars: recombinant enzyme, pH 7.4.
Series [10] deals with T6, CYP1A2 (Homo sapiens, UniProt P05177).
T6 sequence (P05177 2-516): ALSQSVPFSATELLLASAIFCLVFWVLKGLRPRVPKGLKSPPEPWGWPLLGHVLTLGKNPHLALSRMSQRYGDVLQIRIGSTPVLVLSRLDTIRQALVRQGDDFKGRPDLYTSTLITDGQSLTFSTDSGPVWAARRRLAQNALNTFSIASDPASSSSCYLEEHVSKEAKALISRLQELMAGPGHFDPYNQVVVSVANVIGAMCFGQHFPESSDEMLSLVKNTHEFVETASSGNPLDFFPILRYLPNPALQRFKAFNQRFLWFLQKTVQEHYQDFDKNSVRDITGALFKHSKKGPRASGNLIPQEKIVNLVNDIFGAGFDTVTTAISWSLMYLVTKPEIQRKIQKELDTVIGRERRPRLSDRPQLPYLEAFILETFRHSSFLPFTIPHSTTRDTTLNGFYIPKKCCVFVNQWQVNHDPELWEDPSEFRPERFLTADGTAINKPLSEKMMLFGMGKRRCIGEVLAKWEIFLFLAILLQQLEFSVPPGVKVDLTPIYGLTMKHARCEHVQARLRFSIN
Put plainly: Inhibition of CYP1A2 activity in vitro (probe phenacetin). The series is classed as in vitro ADME. The note with it: compound 0-80 μM; probe phenacetin 0.02 mM. Here is the method: as §1

Series [11] deals with T1, CYP2E1. Particulars: recombinant enzyme, 5 μM, pH 7.4.
Series [12] deals with T4, CYP3A4. Put plainly: Degradation in single recombinant CYP3A4. Particulars: 5 μM compound, single enzyme CYP3A4; for speed constant k in CYP3A4: t in min; for half-life at 5 μM: human, recombinant CYP3A4, pH 7.4, read-out: t1/2 in CYP3A4. Details: purchased RILD (Research Institute for Liver Diseases Co., Ltd., Shanghai, China). The series is classed as in vitro ADME.
Target sequence in this assay (P08684 whole entry): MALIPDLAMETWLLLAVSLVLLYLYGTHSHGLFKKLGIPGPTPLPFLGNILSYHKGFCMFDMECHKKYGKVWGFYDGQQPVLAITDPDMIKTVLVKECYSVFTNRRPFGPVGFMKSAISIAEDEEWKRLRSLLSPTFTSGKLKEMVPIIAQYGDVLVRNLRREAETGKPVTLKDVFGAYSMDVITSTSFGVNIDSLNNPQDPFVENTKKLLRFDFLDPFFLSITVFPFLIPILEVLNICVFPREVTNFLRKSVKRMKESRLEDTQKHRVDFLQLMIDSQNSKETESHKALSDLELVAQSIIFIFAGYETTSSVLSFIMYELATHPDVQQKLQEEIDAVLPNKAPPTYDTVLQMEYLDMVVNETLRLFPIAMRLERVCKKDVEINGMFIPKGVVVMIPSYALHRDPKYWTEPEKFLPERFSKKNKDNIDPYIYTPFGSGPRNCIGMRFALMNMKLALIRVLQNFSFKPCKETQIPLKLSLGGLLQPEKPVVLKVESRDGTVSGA
Series [13] in a line: in vitro. Particulars: for CLint: microsomes. The source says:
Km is defined as the characteristic constant of the enzyme, which represent the […] (Vmax). The values of Vmax and Km are based on the nonlinear regression analysis of the Michaelis-Menten equation, V = Vmax × S/(Km + S). The kinetic parameters were adopted through the following parameters: S, Vmax, and V. All of these parameters represented the substrate concentration, the maximum velocity of metabolism, and the velocity of metabolism, respectively. CLint (the different ability of the organism in eliminating the particular chemical substances) is defined as Vmax/Km, which reflected the different ability of the organism in eliminating the particular chemical substances.

The test system of series [14] is CYP3A4. Particulars: rat, in vivo.
The nature of series [15]: in vitro. Particulars: male, Sprague-Dawley, rat, microsomes, pH 7.4.
Series [16] in a line: in vitro. The note with it: human, microsomes, pH 7.4.

Structures are written as SMILES.

T2 sequence (P33261 whole entry): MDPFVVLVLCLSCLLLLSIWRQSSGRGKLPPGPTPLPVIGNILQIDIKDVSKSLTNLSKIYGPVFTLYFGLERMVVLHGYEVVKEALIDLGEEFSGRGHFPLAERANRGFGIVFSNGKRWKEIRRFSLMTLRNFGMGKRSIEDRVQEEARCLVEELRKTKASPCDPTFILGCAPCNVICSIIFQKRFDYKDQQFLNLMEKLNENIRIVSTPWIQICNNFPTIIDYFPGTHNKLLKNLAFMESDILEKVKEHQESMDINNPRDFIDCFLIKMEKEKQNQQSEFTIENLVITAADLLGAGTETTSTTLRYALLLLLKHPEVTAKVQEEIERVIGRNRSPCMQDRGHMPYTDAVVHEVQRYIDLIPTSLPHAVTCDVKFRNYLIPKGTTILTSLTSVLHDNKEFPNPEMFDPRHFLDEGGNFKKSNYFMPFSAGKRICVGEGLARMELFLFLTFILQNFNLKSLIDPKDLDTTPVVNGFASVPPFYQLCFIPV
T1 sequence (P05181 whole entry): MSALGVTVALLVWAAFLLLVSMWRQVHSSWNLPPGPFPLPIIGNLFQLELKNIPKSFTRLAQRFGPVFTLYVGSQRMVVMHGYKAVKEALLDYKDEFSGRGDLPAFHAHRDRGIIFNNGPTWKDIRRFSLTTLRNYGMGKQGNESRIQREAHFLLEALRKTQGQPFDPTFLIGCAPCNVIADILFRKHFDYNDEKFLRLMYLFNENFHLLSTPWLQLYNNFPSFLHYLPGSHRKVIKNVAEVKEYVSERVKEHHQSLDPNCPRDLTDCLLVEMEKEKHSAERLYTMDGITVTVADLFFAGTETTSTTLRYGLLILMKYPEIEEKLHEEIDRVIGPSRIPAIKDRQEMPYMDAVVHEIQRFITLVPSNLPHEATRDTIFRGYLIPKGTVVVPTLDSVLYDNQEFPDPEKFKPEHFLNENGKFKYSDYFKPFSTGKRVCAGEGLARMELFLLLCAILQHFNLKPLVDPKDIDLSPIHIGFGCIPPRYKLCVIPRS

With `COc1cc(/C=C/C(=O)CC(=O)/C=C/c2ccc(O)c(OC)c2)ccc1O` [curcumin], the half-life at 5 μM was determined as 1.16 h at CYP2E1 [1], 5.02 h on CYP1A2 [4], 1.05 h at CYP2C19 [9] and 0.642 h on CYP3A4 [12]. Further, the IC50 against CYP2C19 [2] was 11.9 µM; against CYP2E1 [3], above 80 µM; on CYP1A2 [10], above 80 µM. The “speed constant k in CYP1A2” value on CYP1A2 [4] was determined as 0.0023 ± 0.0006. The compound also had an IC50 at 120 min against CYP3A4 [5] of 24.3 µM. The “protein level of CYP2C19 vs control in vivo” value in the series on CYP2C19 [6] was “decreased”. Moreover, at CYP2C19 [7], the “speed constant k in CYP2C19” value worked out at 0.011 ± 0.0017. Besides, the “metabolic rate of phenacetin with increasing dose of compound” value on CYP1A2 [8] is “decreased”. In addition, at CYP2E1 [11], the “speed constant k in CYP2E1” value is 0.01 ± 0.0024. Besides, the “speed constant k in CYP3A4” value on CYP3A4 [12] was determined as 0.018 ± 0.0035. The Km at 15 min in “in vitro [13]” (Sprague-Dawley, rat, pH 7.4) was found to be 48.5 ± 8.27 µM; in the series “in vitro [13]” (human), 16.6 ± 4.3 µM. The CLint was 0.2435 mL/min/(mg of Protein) in “in vitro [13]” (human) and 0.3226 mL/min/(mg of Protein) in “in vitro [13]” (rat). For the same compound, in the series with CYP3A4 [14], the “metabolic rate of midazolam with increasing dose of compound” value is “decreased”. In addition, the half-life in “in vitro [15]” stood at 0.372 h; in “in vitro [16]”, 2.89 h.

In the case of `CC(C)=C1C/C=C(\C)CC/C=C(\C)CC1=O` [germacrone], the half-life at 5 μM is 1.16 h on CYP2E1 [1], 1.44 h at CYP1A2 [4], 0.963 h at CYP2C19 [9] and 0.608 h at CYP3A4 [12]. For the same compound, the IC50 against CYP2C19 [2] is 17.8 µM; against CYP2E1 [3] it was above 80 µM; against CYP1A2 [10], 78.1 µM. Further, the “speed constant k in CYP1A2” value at CYP1A2 [4] worked out at 0.008 ± 0.001. On CYP3A4 [5], this compound registered an IC50 at 120 min of 3.57 µM. Further, the “speed constant k in CYP2C19” value at CYP2C19 [7] is listed as 0.012 ± 0.0032. Besides, on CYP1A2 [8], the “metabolic rate of phenacetin with increasing dose of compound” value is on record as “increased”. Moreover, the “speed constant k in CYP2E1” value on CYP2E1 [11] is on record as 0.01 ± 0.0017. The “speed constant k in CYP3A4” value on CYP3A4 [12] stood at 0.019 ± 0.0064. Besides, the Km at 15 min in “in vitro [13]” (Sprague-Dawley, rat, pH 7.4) worked out at 49.6 ± 11.1 µM; in “in vitro [13]” (human) it was 44.8 ± 5.47 µM. The CLint was 0.3298 mL/min/(mg of Protein) in the series “in vitro [13]” (human) and 0.2763 mL/min/(mg of Protein) in the series “in vitro [13]” (rat). Moreover, the “metabolic rate of midazolam with increasing dose of compound” value in the series on CYP3A4 [14] was “increased”. The half-life in “in vitro [15]” amounted to 0.3 h; in the series “in vitro [16]”, 0.273 h.

One may read the IC50 as the point on the concentration scale where inhibition reaches its midpoint. Low readings indicate greater potency in that assay, high ones weaker potency in that assay. One may read the Km as the substrate concentration at which the rate is half of its maximum.
